Values after ≈ are worked out from the molar mass of the structure shown.
How the values were obtained:
Format in all cases: cell-based
AGS = test: Antitumor function detection, CCK-8 inhibition ratio; conditions: AGS cells, 72 hours
Experimental: (§1) Test Method: The logarithmic phase cells were seeded in 96-well plates with 3,000 cells per well/100 μl of density. After the cells were adhered, 100 μl of the test compounds with different concentrations were added. Design 6-8 concentration gradients. Set five parallel wells in per group and set the control group. After the compound and tumor cells were incubated for 72 hours, 10 μl of CCK-8 solution was added in per well. After the cells were incubated for 1-2 hours in the incubator, the optical density (OD) of per well was counted by Universal Microplate Spectrophotometer to calculate the inhibition ratio: inhibition ratio (IR %)=(1−TOD/COD)×100%, TOD: the mean OD of drug administration group, COD: the mean OD of solvent control. The dose-response curve was plotted in accordance to the drugs with different concentrations and the inhibition ratio of cells to obtain the Inhibitory concentration of drug (IC50). Test Method: The logarithmic phase cells were seeded in 96-well plates with 3,000 cells per well/100 l of density. After the cells were adhered, 100 l of the test compounds with different concentrations were added. Design 6-8 concentration gradients. Set five parallel wells in each group and set the control group. After the compound and tumor cells were incubated for 72 hours, 10 µl of CCK-8 solution was added in each well. After the cells were incubated for 1-2 hours in the incubator, the optical density (OD) of per well was counted by Universal Microplate Spectrophotometer to calculate the inhibition ratio: inhibition ratio (IR %)=(1−TOD/COD)×100%, TOD: the mean OD of drug administration group, COD: the mean OD of solvent control. The dose-response curve was plotted in accordance to the drugs with different concentrations and the inhibition ratio of cells to obtain the Inhibitory concentration of drug (IC50). Test Method: The logarithmic phase cells were seeded in 96-well plates with 3,000 cells per well/100 μl of density. After the cells were adhered, 100 μl of the test compounds with different concentrations were added. Design 6-8 concentration gradients. Set five parallel wells in each group and set the control group. After the compound and tumor cells were incubated for 72 hours, 10 µl of CCK-8 solution was added in each well. After the cells were incubated for 1-2 hours in the incubator, the optical density (OD) of per well was counted by Universal Microplate Spectrophotometer to calculate the inhibition ratio: inhibition ratio (IR %)=(1−TOD/COD)×100%, TOD: the mean OD of drug administration group, COD: the mean OD of solvent control. The dose-response curve was plotted in accordance to the drugs with different concentrations and the inhibition ratio of cells to obtain the Inhibitory concentration of drug (IC50). Test Method: The logarithmic phase cells were seeded in 96-well plates with 3,000 cells per well/100 μl of density. After the cells were adhered, 100 μl of the test compounds with different concentrations were added. Design 6-8 concentration gradients. Set five parallel wells in each group and set the control group. After the compound and tumor cells were incubated for 72 hours, 10 µl of CCK-8 solution was added in each well. After the cells were incubated for 1-2 hours in the incubator, the optical density (OD) of per well was counted by Universal Microplate Spectrophotometer to calculate the inhibition ratio: inhibition ratio (IR %)=(1−TOD/COD)×100%, TOD: the mean OD of drug administration group, COD: the mean OD of solvent control. The dose-response curve was plotted in accordance to the drugs with different concentrations and the inhibition ratio of cells to obtain the Inhibitory concentration of drug (IC50).

MKN-45 = test: as above; conditions: MKN-45 cells, 72 hours
Experimental: as §1

SGC-7901 = test: as above; conditions: SGC-7901 cells, 72 hours
Experimental: as §1

[1] = test system: gastric cancer cell HGC-27; test: as above; conditions: HGC-27 cells; for The inhibition ratio (%): 72 hours, CCK-8
Experimental: as §1

Candida glabrata 337348 = test: Anti-fungal function detection, MIC by dilution in RPMI1640; conditions: for MIC: Nakaseomyces glabratus, 337348, Standard fungal strain Candida glabrata 337348, incubated for 35 and 24 h, read-out: Minimum Inhibitory Concentration, MIC
Experimental: (§2) Test Method: The hexadecyl tromethamine hydrochloride salt solution was semi-diluted to five concentration gradients (100 μg/ml, 50 μg/ml, 25 μg/ml, 12.5 μg/ml and 6.25 μg/ml) by RPMI1640 fluid nutrient medium. 100 μl of every gradient solution was added in the 96-well plate for standby application. Standard fungal strain and clinical drug-resistant fungal strain in table 2 were chosen as the experimental fungus. The activation of the experimental fungus was obtained through that the experimental fungus were cultivated for 48 h at 30° C. The activated experimental fungus was matched to fungal suspension. Count and adjust the concentration using blood counting chamber. The moderate fungal suspension were added into RPMI1640 fluid nutrient medium to 0.5-2.5×10^3 cfμ/ml of final working concentration. 100 μl of above fungal suspension was added into the above 96-well plate with the hexadecyl tromethamine hydrochloride salt solution. Two parallel wells were set for each concentration gradient compound of each strain. Blank medium and blank medium with fungal solution were set as control simultaneously.
as §2, with “tromethamine” for “tromethamine hydrochloride salt”
as §2, with “phosphate” for “hydrochloride salt”, “µg/ml)” for “μg/ml)”
(§3) 2. The Anti-Fungal Function Detection of the Hexadecyl Tromethamine Benzene Sulfonate Test Method: The hexadecyl tromethamine benzene sulfonate solution was semi-diluted to five concentration gradients (100 μg/ml, 50 μg/ml, 25 μg/ml, 12.5 μg/ml and 6.25 µg/ml) by RPMI1640 fluid nutrient medium. 100 μl of every gradient solution was added in the 96-well plate for standby application. Standard fungal strain and clinical drug-resistant fungal strain in table 2 were chosen as the experimental fungus. The activation of the experimental fungus was obtained through that the experimental fungus were cultivated for 48 h at 30° C. The activated experimental fungus was matched to fungal suspension. […]

Candida krusei 185429 = test: as above; conditions: Pichia kudriavzevii, Standard fungal strain Candida krusei 185429, incubated for 35 and 24 h, read-out: Minimum Inhibitory Concentration, MIC
Experimental: as §2
as §2, with “tromethamine” for “tromethamine hydrochloride salt”
as §2, with “phosphate” for “hydrochloride salt”, “µg/ml)” for “μg/ml)”
as §3

[2] = test system: Candida lusitaniae 340928; test: as above; conditions: Clavispora lusitaniae, Standard fungal strain Candida lusitaniae 340928, incubated for 35 and 24 h, read-out: Minimum Inhibitory Concentration, MIC
Experimental: as §2
as §2, with “tromethamine” for “tromethamine hydrochloride salt”
as §2, with “phosphate” for “hydrochloride salt”, “µg/ml)” for “μg/ml)”
as §3

[3] = test system: Candida parapsilosis 191344; test: as above; conditions: for MIC: Lodderomyces parapsilosis, 191344, Clinical drug-resistant fungal strain Candida parapsilosis 191344, incubated for 35 and 24 h, read-out: Minimum Inhibitory Concentration, MIC
Experimental: as §2
as §2, with “tromethamine” for “tromethamine hydrochloride salt”
as §2, with “phosphate” for “hydrochloride salt”, “µg/ml)” for “μg/ml)”
as §3

[4] = test system: Candida tropicalis 191327; test: as above; conditions: Clinical drug-resistant fungal strain Candida tropicalis 191327, incubated for 35 and 24 h, read-out: Minimum Inhibitory Concentration, MIC
Experimental: as §2
as §2, with “tromethamine” for “tromethamine hydrochloride salt”
as §2, with “phosphate” for “hydrochloride salt”, “µg/ml)” for “μg/ml)”
as §3

[5] = test system: Candida tropicalis 191529; test: as above; conditions: Clinical drug-resistant fungal strain Candida tropicalis 191529, incubated for 35 and 24 h, read-out: Minimum Inhibitory Concentration, MIC
Experimental: as §2
as §2, with “tromethamine” for “tromethamine hydrochloride salt”
as §2, with “phosphate” for “hydrochloride salt”, “µg/ml)” for “μg/ml)”
as §3

SMILES	The inhibition ratio (%) (AGS; 2 μM)	The inhibition ratio (%) (AGS; 20 μM)	The inhibition ratio (%) (MKN-45; 2 μM)	The inhibition ratio (%) (MKN-45; 20 μM)	The inhibition ratio (%) (SGC-7901; 2 μM)	The inhibition ratio (%) (SGC-7901; 20 μM)	The inhibition ratio (%) ([1]; 2 μM)	The inhibition ratio (%) ([1]; 20 μM)	MIC (Candida glabrata 337348) [µg/mL]	MIC (Candida krusei 185429) [µg/mL]	MIC [2] [µg/mL]	MIC [3] [µg/mL]	MIC [4] [µg/mL]	MIC [5] [µg/mL]	further results
CCCCCCCCCCCCCCCCNC(CO)(CO)CO.Cl [2-(hexadecylamino)-2-(hydroxymethyl) propane-1,3-diol hydrochloride]	42	99	31	99	21	100	72	101	25	50	25	25	25	25	inhibitory effect (level reached on the inhibition curve, FIG. 3) ([1]; rises rapidly when the logarithmic value of compound concentration reached 3 nM): 100%
CCCCCCCCCCCCCCCCNC(CO)(CO)CO [hexadecyl tromethamine]	43	99	32	98	24	102	72	100	25 (≈ 72.3 µM)	50 (≈ 145 µM)	25 (≈ 72.3 µM)	25 (≈ 72.3 µM)	25 (≈ 72.3 µM)	25 (≈ 72.3 µM)	
CCCCCCCCCCCCCCCCNC(CO)(CO)CO.O=S(=O)(O)c1ccccc1 [hexadecyl tromethamine benzene sulfonate]	38	95	34	100	23	98	62	96	25	100	25	50	50	50	
CCCCCCCCCCCCCCCCNC(CO)(CO)CO [hexadecyl tromethamine phosphate]															The inhibition ratio (%) (AGS; 2 μM, phosphate): 44%; The inhibition ratio (%) (AGS; 20 μM, phosphate): 100%; The inhibition ratio (%) (MKN-45; 2 μM, phosphate): 29%; The inhibition ratio (%) (MKN-45; 20 μM, phosphate): 97%; The inhibition ratio (%) (SGC-7901; 2 μM, phosphate): 25%; The inhibition ratio (%) (SGC-7901; 20 μM, phosphate): 101%; The inhibition ratio (%) ([1]; 2 μM, phosphate): 68%; The inhibition ratio (%) ([1]; 20 μM, phosphate): 99%; Minimum Inhibitory Concentration, MIC (Candida glabrata 337348; Standard fungal strain Candida glabrata 337348, incubated for 35 and 24 h, phosphate): 50 µg/mL; Minimum Inhibitory Concentration, MIC ([3]; Clinical drug-resistant fungal strain Candida parapsilosis 191344, incubated for 35 and 24 h, phosphate): 50 µg/mL
